Experimental data from patent US11180500B2, “Derivatives of relebactam and uses thereof” (ARIXA PHARMACEUTICALS, INC., priority 2018, dated 2021).

Experiment: Oral bioavailability in Beagle dogs (plasma concentration of relebactam)
Assay type: in vivo
Details: male Beagle dogs, IV bolus, mean
Experimental: The oral bioavailability of certain relebactam prodrugs provided by the present disclosure in Beagle dogs was evaluated.
Dosing formulations are prepared on the day of dosing. Intravenous formulations are prepared under aseptic conditions, sterile filtered, and brought to room temperature prior to dosing. The intravenous formulation included relebactam at a final concentration of 2.8 mg/mL in PBS at pH 7.5.
The formulations were administered to male Beagle dogs weighing about 10 kg. The animals were maintained in accordance with the Guide for the Care and Use of Laboratory Animals, National Research Council, The National Academies Press, Washington, DC, 2011.
The dogs received either an IV bolus dose of 9.9 mg/kg, or a peroral dose of 22 mg/kg (Compound 87) or 20.0 mg/kg (Compound 88). […]
The plasma concentration of relebactam was measured at intervals following administration. […] The relebactam concentration was determined using LC/MS/MS.
The area under the concentration vs. time curves (AUC) was calculated using the linear/log trapezoidal method with linear interpolation. The percent oral bioavailability (% F) of relebactam was determined by comparing the AUC following oral administration with the AUC following IV administration on a dose normalized basis.

Question: With `O=C(NC1CCNCC1)[C@@H]1CC[C@@H]2CN1C(=O)N2OS(=O)(=O)O` [relebactam] as the molecule, how does the AUC(0-inf) (dog, nominal dose 10.0 mg/kg (administered 9.88 mg/kg)) read?
Answer: Its AUC(0-inf) is 29400 ng·h/mL.

Question: And the AUC0-inf/D (relebactam-equivalent dose 9.88 mg/kg)?
Answer: Its AUC0-inf/D is 2974.
